From article PMC4987652 (Scientific Reports, 2016)
Entries after “also recorded” stand apart in the source; their conditions may differ.

Key:
human MOR-GFP = molecular target: T1, human MOR-GFP (Homo sapiens, UniProt P35372); type: cell-based
T1 construct: Human MOR cDNAs (NM_000914) with or without a stop codon were amplified from the Flexi ORF clone; expressed in transfected cells

human MOR [1] = molecular target: T2, human MOR (Homo sapiens, UniProt P35372); type: cell-based; set-up: Human MOR cDNAs (NM_000914) with or without a stop codon were amplified from the Flexi ORF clone; expressed in transfected cells; pcDNA3.1(+); the cAMP line also carries pGloSensor-22F
[2] = molecular target: human nociception receptor (NOP) (Homo sapiens, UniProt P41146); assay: Receptor binding assay, primary screening, [3H]-nociceptin, NOP; details: 10 μM test compound, mean n = 2
[3] = Rat pharmacokinetic study of GJG, plasma LC/MS/MS; type: in vivo; details: GJG 1 g/kg oral, 1 h after administration
Description: A pharmacokinetic study of GJG was performed to identify the bioavailable molecules in PAT. GJG (1 g/kg) was orally administered to rats and blood samples were collected 1 h after administration. Then, representative components of PAT in the collected blood samples were measured by LC/MS/MS. […] Therefore, we further investigated whether ignavine and benzoylmesaconine affect the opioid system.
Male Sprague-Dawley rats (7 weeks, Japan Clea Inc., Tokyo, Japan) were fasted for more than 16 hours with access to water. At 1 h after oral administration of GJG (1.0 g/10 mL/kg, n = 5), blood samples were collected with a heparin-coated syringe and centrifuged at 1,500 × g for 15 minutes at 4 °C. The plasma samples were stored at −80 °C until use.
Plasma samples were pretreated by solid-phase extraction (Oasis® MCX μ Elution Plate, 30 μm; Waters Corporation, Milford, MA, USA) and injected into the LC/MS/MS system for analysis. Components of GJG in plasma were measured by a QTRAP®5500 system (AB SCIEX, Framingham, MA, USA) equipped with an Agilent 1260 HPLC system (binary pump, online degasser, auto plate-sampler and column oven; Agilent Technologies, Santa Clara, CA, USA). The lower limits for quantification were 0.01 ng/mL for ignavine; 0.002 ng/mL for benzoylaconine; 0.001 ng/mL for benzoylmesaconine, benzoylhypaconine and 14-anisoylaconine.

human MOR [4] = molecular target: T2, human MOR; assay: biochemical; type: binding; details: for % Inhibition of [3H]-diprenorphine binding, MOR: 10 μM test compound, mean n = 2
human KOR = human KOR (Homo sapiens, UniProt P41145); assay: Receptor binding assay, primary screening, [3H]-diprenorphine, KOR; details: 10 μM test compound, mean n = 2
rat whole brain [5] = assay: Receptor binding assay, primary screening, [3H]-naloxone, rat whole brain; details: 10 μM test compound, mean n = 2
[6] = molecular target: human δ opioid receptor (DOR) (Homo sapiens, UniProt P41143); assay: Receptor binding assay, primary screening, [3H]-naltrindole, DOR; details: 10 μM test compound, mean n = 2
normal mice [7] = assay: Tail-pressure test; type: in vivo
Description: (§1) Analgesic activity of ignavine was investigated by the tail-flick (Fig. 6A) and tail-pressure tests in normal mice (Fig. 6B). […] Maximum activity was shown at a dose of 0.1 mg/kg and analgesic activity was attenuated at higher doses. These dose-dependent relationships were similar to the results of in vitro assays.
(§2) Antinociceptive responses were evaluated by the tail-flick test (Tail flick unit; Ugo Basile, Comerio, Italy) and the tail-pressure test (Pressure analgesimeter; Ugo Basile). The latency (sec) or weight (g) at which mice struggled or withdrew was considered the nociceptive threshold.

[8] = set-up: method as in PMID 7116516; details: acetic acid-induced writhing and carrageenan paw edema test; cited from earlier work
normal mice [9] = assay: Tail-flick test; type: in vivo
Description: as §1, §2

human MOR [10] = molecular target: T2, human MOR; assay: biochemical; type: binding; set-up: Human MOR cDNAs (NM_000914) with or without a stop codon were amplified from the Flexi ORF clone; expressed in transfected cells; pcDNA3.1(+); the cAMP line also carries pGloSensor-22F
[11] = molecular target: human μ opioid receptor (MOR) (human) (UniProt P35372)
rat whole brain [12] = details: read-out: Kd of radioligand, rat brain; assay condition of the binding assay; ref MDS Pharma Services; cited from earlier work
[13] = intra-peritoneal administration, area under the curve
[14] = intra-peritoneal, attenuated at higher doses

Chain of human KOR (P41145 whole entry): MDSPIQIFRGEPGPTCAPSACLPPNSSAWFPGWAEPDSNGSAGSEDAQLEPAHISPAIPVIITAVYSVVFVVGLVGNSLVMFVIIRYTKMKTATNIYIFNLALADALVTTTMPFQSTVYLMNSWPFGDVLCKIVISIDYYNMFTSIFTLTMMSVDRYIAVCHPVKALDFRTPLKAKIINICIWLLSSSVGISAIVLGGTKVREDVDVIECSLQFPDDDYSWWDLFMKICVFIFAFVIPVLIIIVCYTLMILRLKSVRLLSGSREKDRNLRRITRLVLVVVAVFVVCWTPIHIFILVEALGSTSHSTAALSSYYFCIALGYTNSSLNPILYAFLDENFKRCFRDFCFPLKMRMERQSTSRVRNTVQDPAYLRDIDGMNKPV
T1 sequence (P35372 whole entry): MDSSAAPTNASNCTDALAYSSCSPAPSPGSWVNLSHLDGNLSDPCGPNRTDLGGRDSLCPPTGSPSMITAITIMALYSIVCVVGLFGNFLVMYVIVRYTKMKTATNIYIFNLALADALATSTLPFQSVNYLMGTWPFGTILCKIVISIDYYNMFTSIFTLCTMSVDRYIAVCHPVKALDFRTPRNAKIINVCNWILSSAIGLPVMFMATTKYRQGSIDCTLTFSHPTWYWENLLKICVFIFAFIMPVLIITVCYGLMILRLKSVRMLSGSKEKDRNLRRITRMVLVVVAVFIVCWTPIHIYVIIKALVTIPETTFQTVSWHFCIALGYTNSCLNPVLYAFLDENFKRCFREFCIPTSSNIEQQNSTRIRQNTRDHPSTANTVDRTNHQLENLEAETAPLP
T2 sequence (P35372 whole entry): as above
Chain of human nociception receptor (NOP) (P41146 whole entry): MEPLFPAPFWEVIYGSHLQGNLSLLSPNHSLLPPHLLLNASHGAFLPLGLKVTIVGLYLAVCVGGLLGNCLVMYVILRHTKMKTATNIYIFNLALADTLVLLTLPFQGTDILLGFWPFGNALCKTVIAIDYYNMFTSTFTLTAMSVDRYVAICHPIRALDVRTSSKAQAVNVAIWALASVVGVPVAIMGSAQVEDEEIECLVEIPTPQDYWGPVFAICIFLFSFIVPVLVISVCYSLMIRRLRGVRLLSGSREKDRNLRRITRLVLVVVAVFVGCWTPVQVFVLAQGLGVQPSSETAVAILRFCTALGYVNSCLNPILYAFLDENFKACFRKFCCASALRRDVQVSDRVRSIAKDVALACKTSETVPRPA
Chain of human μ opioid receptor (MOR) (human) (P35372 whole entry): as the sequence (P35372 whole entry) above
Chain of human δ opioid receptor (DOR) (P41143 whole entry): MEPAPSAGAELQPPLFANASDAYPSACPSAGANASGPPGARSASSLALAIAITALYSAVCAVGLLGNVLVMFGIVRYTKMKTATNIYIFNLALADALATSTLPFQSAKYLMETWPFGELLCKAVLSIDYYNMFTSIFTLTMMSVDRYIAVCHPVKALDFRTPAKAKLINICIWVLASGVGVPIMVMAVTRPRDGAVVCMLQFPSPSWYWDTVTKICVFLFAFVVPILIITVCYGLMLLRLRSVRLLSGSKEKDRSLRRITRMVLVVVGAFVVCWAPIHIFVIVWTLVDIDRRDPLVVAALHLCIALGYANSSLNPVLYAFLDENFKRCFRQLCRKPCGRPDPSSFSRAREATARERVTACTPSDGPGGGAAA

C[C@@H](NC(=O)[C@@H](N)Cc1ccc(O)cc1)C(=O)NCC(=O)N(C)[C@@H](Cc1ccccc1)C(=O)NCCO [DAMGO, D-Ala(2)-N-Me-Phe(4)-Gly-ol(5)-enkephalin, reference compound]
MOR internalization (vesicle formation) (human MOR-GFP): vesicles were observed in the intracellular space; also recorded: induced vesicle formation
Effect on forskolin-induced increase of intracellular cAMP (human MOR [1]): inhibited the increase of intracellular cAMP

COC[C@]12CN(C)C3[C@@H]4[C@H](OC)[C@H]1[C@@]3([C@@H](OC)C[C@H]2O)[C@@H]1C[C@@]2(O)[C@H](OC(=O)c3ccccc3)[C@@H]1[C@]4(O)[C@@H](O)[C@@H]2OC [benzoylmesaconine]
% Inhibition of radioligand binding, NOP [2]: -9%
Plasma concentration after oral GJG [3]: higher concentrations
% Inhibition of [3H]-diprenorphine binding, MOR (human MOR [4]): 2%
% Inhibition of [3H]-diprenorphine binding, KOR (human KOR; 10 µM): Neither ignavine nor benzoylmesaconine inhibited
% Inhibition of [3H]-diprenorphine binding, KOR (human KOR; listed as Benzoylmesaconine, 10 µM): 3%
% Inhibition of [3H]-naloxone binding, rat brain (rat whole brain [5]): 17%
% Inhibition of radioligand binding, DOR [6]: -8%

C=C1C2CC3C4N5CC6(C)C(O)C(OC(=O)c7ccccc7)CC47C6C5CC3(C1O)C7(O)C2 (stereo not shown) [ignavine]
Analgesic activity, tail-pressure test (normal mice [7]; [13]): inhibited pain
Dose of maximum analgesic activity, tail-pressure test (normal mice [7]; [14]): 0.1 mg/kg
inhibition at 10 µM ([2]; read-out: % Inhibition of radioligand binding, NOP): -7%
MOR internalization, ignavine alone (human MOR-GFP): did not affect receptor internalization
Plasma concentration after oral GJG [3]: highest concentration among the measured components; also recorded: higher concentrations
Anti-inflammatory activity and adverse effects [8]: anti-inflammatory activity
Analgesic activity, tail-flick test (normal mice [9]; [13]): inhibited pain
Dose of maximum analgesic activity, tail-flick test (normal mice [9]; [14]): 0.1 mg/kg
% Inhibition of [3H]-diprenorphine binding, MOR (human MOR [4]): almost completely inhibited
inhibition at 10 µM (human MOR [4]; read-out: % Inhibition of [3H]-diprenorphine binding, MOR): 90%
% Inhibition of [3H]-diprenorphine binding, KOR (human KOR): Neither ignavine nor benzoylmesaconine inhibited
inhibition at 10 µM (human KOR): 0%
% Inhibition of [3H]-naloxone binding, rat brain (rat whole brain [5]; 10 µM): also inhibited its binding
% Inhibition of [3H]-naloxone binding, rat brain (rat whole brain [5]; listed as Ignavine, 10 µM): 92%
Effect on intracellular cAMP levels, ignavine alone (human MOR [1]): no effect
Fold increase of EC50 of DAMGO (human MOR [1]): 3.3 fold
Modulation of DAMGO activity in cAMP assay, early period (human MOR [1]): enhancing the activity of DAMGO
Modulation of DAMGO activity in cAMP assay, later period (human MOR [1]): inhibiting DAMGO activity
Modulation of endomorphin-1 (EMP-1) activity in cAMP assay (human MOR [1]): positive modulation
Modulation of endomorphin-1 activity in cAMP assay (human MOR [1]): inhibited them
Modulation of morphine (MRP) activity in cAMP assay (human MOR [1]): positive modulation
Modulation of morphine activity in cAMP assay (human MOR [1]): inhibited them
Response in cAMP assay in the presence of naloxone (human MOR [1]): did not show a clear response
IC50 (human MOR [10]): 2000 nM
inhibition at 10 µM ([6]; read-out: % Inhibition of radioligand binding, DOR): -5%

D-Ala(2)-N-Me-Phe(4)-Gly-ol(5)-enkephalin (peptide)
EC50 of DAMGO in the intracellular cAMP assay, fold change with 1 μM ignavine against DMSO, 7.5 min after forskolin [11]: 3.8 fold
EC50 of DAMGO in the intracellular cAMP assay, fold change with 10 μM ignavine against DMSO, 23.5 min after forskolin [11]: 3.3 fold

C=CCN1CC[C@]23c4c5ccc(O)c4O[C@H]2C(=O)CC[C@@]3(O)[C@H]1C5 [naloxone]
Kd (rat whole brain [12]): 1.4 nM
